Data reported in article PMC3821907, “Synthesis of Novel Compounds as New Potent Tyrosinase Inhibitors” (BioMed Research International, 2013).
Values belong to the compound of their own block, whether it stands above or below them.

Tests used:
mushroom tyrosinase = test: Tyrosinase inhibition assay (diphenolase activity, L-DOPA substrate); format: biochemical; settings: L-DOPA 0.5 mM, pH 6.8, 25°C, mean ± SEM, read-out: IC50 ± SEM, tyrosinase inhibitory activity
Experimental: The spectrophotometric assay for tyrosinase was performed according to the method Ref 15. Briefly, all the synthesized compounds were screened for the diphenolase inhibitory activity of tyrosinase using L-DOPA as substrate. All the compounds were dissolved in DMSO. The final concentration of DMSO in the test solution was 2.0%. Phosphate buffer, pH=6.8, was used to dilute the DMSO stock solution of test compounds. Thirty units of mushroom tyrosinase (0.5 mg/mL) were first preincubated with the compounds, in 50 mM phosphate buffer (pH 6.8), for 10 min at 25°C. Then the L-DOPA (0.5 mM) was added to the reaction mixture, and the enzyme reaction was monitored by measuring the change in absorbance at 475 nm of formation of the L-DOPA chrome for 10 min. The measurement was performed in triplicate for each concentration and averaged before further calculation. […] The percent of inhibition of tyrosinase reaction was calculated as the following: Inhibition (%) = [B−S/B] × 100. Here, the B and S are the absorbances for the blank and samples.

[1] = tested on: B16F10 mouse melanoma cells; test: Inhibition of melanin production; format: cell-based; settings: 72 h; for inhibition at 20 µg/mL: B16-F10, 20 μg/mL
Experimental: (§1) Also inhibitions of the compounds 5a–5f were tested on melanin production and their cytotoxicity on B16F10 mouse melanoma cells at concentrations of 20 μg/mL.
Melanin production inhibition was ascertained by method of Wang et al.. A total of 8 × 10^4 cells were added to 60 mm plates and were incubated at 37°C in a CO2 incubator, then, 10 μL test samples in DMSO were added to plates and were incubated for 72 hours at 37°C in a CO2 incubator. After washing with PBS, cells were destroyed with 1 mL of 1 N NaOH, and 200 μL portions of raw cell extracts were moved to 96-well plates. Melanin production inhibition was determined by recording absorbance at 495 nm. The effects of test samples on melanin contents are stated as percent inhibitions of the value obtained in B16F10 mouse melanoma cells which were cultured with DMSO alone.

Cytotoxicity assay (MTT) = format: cell-based; settings: B16F10 mouse melanoma cells, read-out: Cytotoxicity cell viability (%)
Experimental: as §1
Cytotoxicity assays were performed using a microculture MTT method described by Han et al.. A B16F10 mouse melanoma cell suspension was poured into a 96-well plate (10^3 cells/well), and cells were allowed to completely stick […] overnight. Test samples were then added to the plate and were incubated at 37°C for 72 h in a CO2 incubator. 20 μL of MTT solution (2 mg/mL) was then added per well and incubated for 4 hours. Supernatant was then removed, and formazan was solubilized by adding 150 μL DMSO to each well with mild shaking. Absorbance at 490 nm was recorded using an ELISA plate reader.

SMILES: Cc1ccc(SC(=O)/C(=C\c2ccc(F)cc2)NC(=O)c2ccc(/N=N/c3ccc(N(C)C)cc3)cc2)c(S)c1 [Compound 5a, 4-Methyl-2-sulfanylphenyl(E)-2-[(4-{(E)-2-[4-(dimethylamino)phenyl]-1-diazenyl}benzoyl)amino]-3-(4-fluorophenyl)-2-propenethioate]
IC50 (mushroom tyrosinase): 4390 ± 760 nM
inhibition at 20 µg/mL [1]: 42.1 ± 0.75%
viability at 72 h, 20 μg/mL (Cytotoxicity assay (MTT)): 82.2 ± 3.55%
melting point: 293 °C (dec.)

SMILES: Cc1ccc(SC(=O)/C(=C\c2ccc(OC(F)(F)F)cc2)NC(=O)c2ccc(/N=N/c3ccc(N(C)C)cc3)cc2)c(S)c1 [Compound 5b, 4-Methyl-2-sulfanylphenyl(E)-2-[(4-{(E)-2-[4-(dimethylamino)phenyl]-1-diazenyl}benzoyl)amino]-3-[4-(trifluoromethoxy)phenyl]-2-propenethioate]
IC50 (mushroom tyrosinase): 3860 ± 660 nM
inhibition at 20 µg/mL [1]: 41 ± 4.33%
viability at 72 h, 20 μg/mL (Cytotoxicity assay (MTT)): 80.1 ± 1.89%
melting point: 286 °C (dec.)

SMILES: CC(=O)Oc1ccc2ccccc2c1/N=N/c1ccc(C(=O)N/C(=C/c2ccc(OC(F)(F)F)cc2)C(=O)Sc2ccc(C)cc2S)cc1 [Compound 5f, 1-((E)-2-{4-[({(E)-1-{[(4-Methyl-2-sulfanylphenyl)sulfanyl]carbonyl}-2-[4-(trifluoromethoxy)phenyl]-1-ethenyl}amino)carbonyl]phenyl}-1-diazenyl)-2-naphthyl Acetate]
IC50 (mushroom tyrosinase): 1710 ± 490 nM
inhibition at 20 µg/mL [1]: 34.7 ± 2.22%
viability at 72 h, 20 μg/mL (Cytotoxicity assay (MTT)): 80.6 ± 2.65%
melting point: 320 °C (dec.)

SMILES: O=c1cc(CO)occ1O [Kojic acid, reference compound]
inhibition at 200 µg/mL ([1]; B16-F10, tested at 200 µg/mL): 17.3 ± 1.29%
viability at 72 h, 200 µg/mL (Cytotoxicity assay (MTT); tested at 200 µg/mL): 81.7 ± 1.23%

Continued, in another order:

IC50 (mushroom tyrosinase): 2680 ± 550 nM
melting point: 308 °C (dec.)
SMILES: CC(=O)Oc1c(/N=N/c2ccc(C(=O)N/C(=C/c3ccc(F)cc3)C(=O)Sc3ccc(C)cc3S)cc2)ccc2ccccc12 [Compound 5c, 2-[(E)-2-(4-{[((E)-2-(4-fluorophenyl)-1-{[(4-methyl-2-sulfanylphenyl)sulfanyl]carbonyl}-1-ethenyl)amino]carbonyl}phenyl)-1-diazenyl]-1-naphthyl Acetate]
inhibition at 20 µg/mL [1]: 35.9 ± 3.11%
viability at 72 h, 20 μg/mL (Cytotoxicity assay (MTT)): 83.2 ± 2.22%

IC50 (mushroom tyrosinase): 2480 ± 880 nM
melting point: 318 °C (dec.)
SMILES: CC(=O)Oc1c(/N=N/c2ccc(C(=O)N/C(=C/c3ccc(OC(F)(F)F)cc3)C(=O)Sc3ccc(C)cc3S)cc2)ccc2ccccc12 [Compound 5d, 2-((E)-2-{4-[({(E)-1-{[(4-Methyl-2-sulfanylphenyl)sulfanyl]carbonyl}-2-[4-(trifluoromethoxy)phenyl]-1-ethenyl}amino)carbonyl]phenyl}-1-diazenyl)-1-naphthyl Acetate]
inhibition at 20 µg/mL [1]: 37.5 ± 4.09%
viability at 72 h, 20 μg/mL (Cytotoxicity assay (MTT)): 84.7 ± 5.38%

IC50 (mushroom tyrosinase): 1980 ± 390 nM
melting point: 325 °C (dec.)
SMILES: CC(=O)Oc1ccc2ccccc2c1/N=N/c1ccc(C(=O)N/C(=C/c2ccc(F)cc2)C(=O)Sc2ccc(C)cc2S)cc1 [Compound 5e, 1-[(E)-2-(4-{[((E)-2-(4-fluorophenyl)-1-{[(4-methyl-2-sulfanylphenyl)sulfanyl]carbonyl}-1-ethenyl)amino]carbonyl}phenyl)-1-diazenyl]-2-naphthyl Acetate]
inhibition at 20 µg/mL [1]: 36.8 ± 1.44%
viability at 72 h, 20 μg/mL (Cytotoxicity assay (MTT)): 81.9 ± 1.08%
